From article PMC5506043, “Inhibitory effects of local anesthetics on the proteasome and their biological actions” (Scientific Reports, 2017)
Like-named read-outs stand apart in the source and are kept apart here. Where a SMILES comes first, the peptide text is derived from it. The star is where a group is joined. Cbz = O=C(OCc1ccccc1)*

Key:
20S proteasome [1] = target: T1, 20S proteasome (Homo sapiens, UniProt P28074+P49721); experiment: 20S proteasome activity (chymotrypsin-like, Suc-Leu-Leu-Val-Tyr-MCA substrate); assay type: biochemical; conditions: for IC50: 37 °C, 1 h
T1 construct: purchased Calbiochem
Description: 20S Proteasome activity was assessed by fluorescence of free AMC (7-Amino-4-methylcoumarin, excitation: 380 nm, emission: 460 nm) liberated from a substrate peptide (Suc-Leu-Leu-Val-Tyr-MCA). The reaction mixture contained the 20S proteasome (500 μg/ml), the substrate peptide (10 μM) and the indicated drugs in 25 mM HEPES, 0.5 mM EDTA, 0.03% SDS, pH 7.6. The mixture was incubated at 37 °C for 1 h. AMC fluorescence liberated in the absence of drugs was taken as the basal value (100%). The fluorescence liberated in the absence of SDS was taken as the background value (0%)[13]. Most of the activity assays were conducted using an assay kit (Calbiochem), but some were conducted in hand-made buffer solutions.
Concentration dependence of the effects of each drug on the stability of the short-lived protein and the 20S proteasome activity was fitted using the following equation: B%=Bmax·[Drug]^n/(IC50^n+[Drug]^n) where, B% represents the changes in expression of the short-lived protein and the 20S proteasome activity induced by drugs at a given concentration of the [drug], and Bmax represents the maximum attainable reduction. IC50 and n are the half-maximal inhibitory concentration and Hill coefficient, respectively.

Kato III cells = experiment: Proliferation of Kato III cells; assay type: cell-based; conditions: 24 h; pilsicainide 1 μM, lidocaine 20 μM; cells do not express p53
MKN45 cells [2] = experiment: Tumor growth of pretreated MKN45 cells transplanted into mice; assay type: in vivo; conditions: MKN45 cells pretreated with drug, transplanted into the intestine of SOD SKID mice
20S proteasome [3] = target: T1, 20S proteasome; experiment: [3H]-pilsicainide binding assay; conditions: displacement of [3H]-pilsicainide, 1 h, room temperature
Description: Commercially available 20S proteasome was purchased from Calbiochem. LAs and their derivatives at increasing concentrations (10^–8 to 10^–2 M) were incubated with [^3H]-pilsicainide for 1 h at room temperature in buffer containing 50 mM HEPES supplemented with 1% bovine serum albumin (pH 7.4). Following the reaction termination by addition of 100% […], the bound and unbound ligands were separated by centrifugation. Specific binding was defined as the difference between binding capacities in the pellet and supernatant.

p53-FLAG in COS7 cells = experiment: p53-FLAG expression in transfected COS7 cells (Western blot); assay type: cell-based
Description: pcDNA3/p53-FLAG was a kind gift from Dr. Nakayama (Kyushu University). pcDNA3/Mdm2 (C438A) was a kind gift from Dr. Yasuda (Tokyo Pharmaceutical College). pCR/CMV/hH1 was a kind gift from Dr. Makita (Hokkaido University). COS7 cells were maintained in Dulbecco’s modified Eagle medium (Gibco BRL)/10% fetal bovine serum at 37 °C in a 5% CO2 incubator. Cells were transfected using lipofectamine (Gibco BRL) according to the instructions provided by the manufacturer. Forty-eight hours after transfection, cells were assayed. Proteasome inhibitors or LAs were applied 36 hours after transfection. All drugs except for MG132 were dissolved in culture medium or distilled water. MG132 was dissolved in dimethyl sulfoxide (DMSO). The final concentration of DMSO in the culture or reaction medium was equal to or less than 0.01% v/v. Pilsicainide was kindly provided by Daiichi Suntory Pharmaceutical Co., Ltd. (Osaka, Japan).
(§1) The same amounts (10 μg) of protein were separated on SDS-PAGE and electro-transferred to a polyvinylidene difluoride membrane. Membranes were probed with antibodies against FLAG (1:1000, Cosmo Bio), GFP (1:1000, Molecular Probes), ubiquitin (1:1000, MBL) or β-actin (1:1000, Oncogene) and were developed using an ECL detection system. Immunoprecipitation was carried out in PBS/1% Triton X-100, 0.5% SDS, 0.25% sodium deoxycholate, 1 mM ethylenediaminetetraacetic acid (EDTA), and 10 μg/ml aprotinin, 10 μg/ml leupeptine, 10 μg/ml pepstatin and 1 mM phenylmethylsulfonylfluoride for 2 h at 4 °C. Immune complexes were collected with protein G agarose (GE Healthcare Life Science) and bound proteins were analyzed by SDS-PAGE followed by immunoblotting.

p53 in MKN45 cells = experiment: Endogenous p53 expression in MKN45 cells (Western blot); assay type: cell-based; conditions: 24 h
Description: Cell lysates were analyzed by Western blot analysis (a). Quantitative analysis of p53-FLAG stability using densitometry is shown in (b). Each point was expressed relative to the values in the absence of drugs (100%). […] Cell lysates were analyzed by Western blot analysis (c). Quantitative analysis of the protein level of endogenous p53 was conducted using densitometry (d).
as §1

MKN45 cells [4] = experiment: Proliferation of MKN45 cells (MTT assay); assay type: cell-based; conditions: 24 h, p53-expressing cells
Text: Figure 4 Effects of LAs on cancer cells. (a) Effects of LAs on the proliferation of MKN45 cells. […] Proliferation of […] was estimated by MTT assays.

20S proteasome [5] = target: T1, 20S proteasome; parameters: method as in PMID 23026372; conditions: previously reported; cited from earlier work
[6] = target: T2, wild-type 20S proteasome trypsin-like activity (Saccharomyces cerevisiae, UniProt P25043); experiment: Trypsin-like activity of the wild-type 20S proteasome; assay type: biochemical
T2 construct: U.B. purified the yeast 20S proteasome and assayed proteasome activity; made in house; host or cells: yeast (purified from wild-type cells; inferred)

[7] = target: T3, wild-type 20S proteasome caspase-like activity (Saccharomyces cerevisiae, UniProt P38624); experiment: Caspase-like activity of the wild-type 20S proteasome; assay type: biochemical
T3 construct: U.B. purified the yeast 20S proteasome and assayed proteasome activity; made in house; host or cells: yeast (purified from wild-type cells; inferred)

[8] = COS7 cells transfected with p53-FLAG
[9] = COS7 cells, dominant negative Mdm2 (C438A), 12 h, MG132 50 µM, pilsicainide 20 µM, lidocaine 1 mM

Compound: CCN(CC)CCCN(c1ccccc1)C1Cc2ccccc2C1 [aprindine]
- Effect on 20S proteasome activity (in words) (20S proteasome [1]; in vitro): inhibit the 20S proteasome

Compound: COc1ccc(CCN(C)CCCC(C#N)(c2ccc(OC)c(OC)c2)C(C)C)cc1OC (stereo not drawn) [verapamil]
- Effect on 20S proteasome activity (in words) (20S proteasome [1]): Neither the Ca^2+ channel blocker verapamil which contains two aromatic rings, nor the K^+ channel blocker E-4031, affected the activity

Compound: CCN(CC)CC(=O)Nc1c(C)cccc1C [lidocaine]
- Effect on 20S proteasome activity (in words) (20S proteasome [1]; in vitro): inhibited 20S proteasome activity
- Suppression of proliferation of Kato III cells (in words) (Kato III cells): not observed
- Tumor growth of transplanted MKN45 cells (in words) (MKN45 cells [2]): significantly decreased the proliferation of MKN45 cells
- Tumor growth of transplanted MKN45 cells (in words) (MKN45 cells [2]; listed as Lidocaine): suppression of tumor growth
- Kd (20S proteasome [3]): 21.2 ± 3.5 µM
- Expression of p53-FLAG protein (in words) (p53-FLAG in COS7 cells; [8]): increased the expression of p53-FLAG
- Effect on p53-FLAG with co-expression of the C438A mutant of Mdm2 (in words) (p53-FLAG in COS7 cells; [9]): abolished the effects
- Endogenous p53 protein level (in words) (p53 in MKN45 cells): increased the p53 protein level in MKN45 cells in a dose-dependent manner
- Proliferation of MKN45 cells (in words) (MKN45 cells [4]): suppressed proliferation of MKN45 cells in a dose-dependent manner

Compound: Cc1cccc(C)c1OCC(C)N (stereo not drawn) [mexiletine]
- Effect on 20S proteasome activity (in words) (20S proteasome [1]; in vitro): inhibit the 20S proteasome
- IC50 (20S proteasome [1]; in vitro): 14 ± 6.3 µM

Compound: Cc1cccc(CCN2CCC(C(=O)c3ccc(NS(C)(=O)=O)cc3)CC2)n1 [E-4031]
- Effect on 20S proteasome activity (in words) (20S proteasome [1]; in vitro): Neither the Ca^2+ channel blocker verapamil which contains two aromatic rings, nor the K^+ channel blocker E-4031, affected the activity

Compound: CC(C)C[C@@H](C=O)NC(=O)[C@H](CC(C)C)NC(=O)[C@H](CC(C)C)NC(=O)OCc1ccccc1 [MG132] (Cbz-Leu-Leu-Leu-aldehyde)
- Effect on p53-FLAG with co-expression of the C438A mutant of Mdm2 (in words) (p53-FLAG in COS7 cells): abolished the effects
- Expression of p53-FLAG protein (in words) (p53-FLAG in COS7 cells): increased the expression of p53-FLAG

Compound: O=C(CC12CCCN1CCC2)Nc1ccc(F)cc1 [4-F]
- Effect on 20S proteasome activity (in words) (20S proteasome [1]; in vitro): partially inhibited
- Kd (20S proteasome [3]): 20 ± 3.2 µM
- Expression of p53-FLAG protein (in words) (p53-FLAG in COS7 cells; [8]): partially increased
- Endogenous p53 protein level (in words) (p53 in MKN45 cells): increased p53 a little

Compound: CC(C)COCC(CN(Cc1ccccc1)c1ccccc1)N1CCCC1 (stereo not drawn) [bepridil]
- Inhibitory action on the proteasome (in words) (20S proteasome [5]): did not show the inhibitory action on the proteasome

Compound: O=C(CC12CCCN1CCC2)Nc1cccc(F)c1 [3-F]
- Effect on 20S proteasome activity (in words) (20S proteasome [1]; in vitro): partially inhibited
- IC50 (20S proteasome [1]; in vitro): 20.5 ± 21.8 µM

Compound: O=C(CC12CCCN1CCC2)Nc1ccccc1F [2-F]
- Effect on 20S proteasome activity (in words) (20S proteasome [1]; in vitro): partially inhibited
- IC50 (20S proteasome [1]; in vitro): 21.5 ± 46.8 µM

Compound: Cc1cccc(C)c1NC(=O)CC12CCCN1CCC2 [pilsicainide]
- Effect on 20S proteasome activity (in words) (20S proteasome [1]; in vitro): inhibited 20S proteasome activity
- IC50 (20S proteasome [1]; in vitro): 3.5 ± 1.5 µM
- Trypsin-like activity inhibition (in words) [6]: not inhibited
- Suppression of proliferation of Kato III cells (in words) (Kato III cells): not observed
- Caspase-like activity inhibition (in words) [7]: not inhibited
- Kd (20S proteasome [3]): 1 ± 2.8 µM
- Expression of p53-FLAG protein (in words) (p53-FLAG in COS7 cells; [8]): increased the expression of p53-FLAG
- Effect on p53-FLAG with co-expression of the C438A mutant of Mdm2 (in words) (p53-FLAG in COS7 cells; [9]): abolished the effects
- Endogenous p53 protein level (in words) (p53 in MKN45 cells): increased the p53 protein level in MKN45 cells in a dose-dependent manner
- Proliferation of MKN45 cells (in words) (MKN45 cells [4]): suppressed proliferation of MKN45 cells in a dose-dependent manner

Compound: NC1=N[C@H](O)[C@H]2[C@H]3O[C@]4(O)O[C@@H]([C@@H](O)[C@@]2(N1)[C@@H]4O)[C@]3(O)CO [Tetrodotoxin]
- Effect on 20S proteasome activity (in words) (20S proteasome [1]): did not inhibit 20S proteasome activity
